From PubChem BioAssay AID1259407 (Chemical Carcinogenesis Research Information System (CCRIS), 2018)
The source made the active and inactive calls. How the calls were made is not given here.

System: CCRIS mutagenicity, Ames/micronucleus/aberration tests
Test: CCRIS mutagenicity studies
[1] = Test System: AMES SALMONELLA TYPHIMURIUM, Strain/Indicator: TA98, Metabolic Activation: NONE, Method: PREINCUBATION
[2] = Test System: AMES SALMONELLA TYPHIMURIUM, Strain/Indicator: TA98, Metabolic Activation: NONE, Method: STANDARD PLATE
[3] = Test System: AMES SALMONELLA TYPHIMURIUM, Strain/Indicator: TA98, Metabolic Activation: RAT, LIVER, S-9, AROCLOR 1254, Method: STANDARD PLATE
[4] = Test System: AMES SALMONELLA TYPHIMURIUM, Strain/Indicator: TA100, Metabolic Activation: NONE, Method: STANDARD PLATE
[5] = Test System: AMES SALMONELLA TYPHIMURIUM, Strain/Indicator: TA100, Metabolic Activation: RAT, LIVER, S-9, AROCLOR 1254, Method: STANDARD PLATE
[6] = Test System: AMES SALMONELLA TYPHIMURIUM, Strain/Indicator: TA1535, Metabolic Activation: NONE, Method: STANDARD PLATE
[7] = Test System: AMES SALMONELLA TYPHIMURIUM, Strain/Indicator: TA1535, Metabolic Activation: RAT, LIVER, S-9, AROCLOR 1254, Method: STANDARD PLATE
[8] = Test System: AMES SALMONELLA TYPHIMURIUM, Strain/Indicator: TA1537, Metabolic Activation: NONE, Method: STANDARD PLATE
[9] = Test System: AMES SALMONELLA TYPHIMURIUM, Strain/Indicator: TA1537, Metabolic Activation: RAT, LIVER, S-9, AROCLOR 1254, Method: STANDARD PLATE
[10] = Test System: AMES SALMONELLA TYPHIMURIUM, Strain/Indicator: TA1538, Metabolic Activation: NONE, Method: STANDARD PLATE
[11] = Test System: AMES SALMONELLA TYPHIMURIUM, Strain/Indicator: TA1538, Metabolic Activation: RAT, LIVER, S-9, AROCLOR 1254, Method: STANDARD PLATE

Measured: mutagenic call

CC/C(C)=N\O
inactive: Test System: AMES SALMONELLA TYPHIMURIUM, Strain/Indicator: TA97, Metabolic Activation: HAMSTER LIVER S-9, AROCLOR 1254, 30%, Method: PREINCUBATION inactive; negative | Test System: AMES SALMONELLA TYPHIMURIUM, Strain/Indicator: TA97, Metabolic Activation: NONE, Method: PREINCUBATION inactive; negative | Test System: AMES SALMONELLA TYPHIMURIUM, Strain/Indicator: TA97, Metabolic Activation: RAT LIVER S-9, AROCLOR 1254, 30%, Method: PREINCUBATION inactive; negative | Test System: AMES SALMONELLA TYPHIMURIUM, Strain/Indicator: TA98, Metabolic Activation: HAMSTER LIVER S-9, AROCLOR 1254, 30%, Method: DESICCATOR inactive; negative | Test System: AMES SALMONELLA TYPHIMURIUM, Strain/Indicator: TA98, Metabolic Activation: HAMSTER LIVER S-9, AROCLOR 1254, 30%, Method: PREINCUBATION inactive; negative | Test System: AMES SALMONELLA TYPHIMURIUM, Strain/Indicator: TA98, Metabolic Activation: HAMSTER, LIVER, S-9, AROCLOR 1254, Method: STANDARD PLATE inactive; negative | Test System: AMES SALMONELLA TYPHIMURIUM, Strain/Indicator: TA98, Metabolic Activation: NONE, Method: DESICCATOR inactive; negative | [1] inactive; negative | [2] inactive; negative | Test System: AMES SALMONELLA TYPHIMURIUM, Strain/Indicator: TA98, Metabolic Activation: RAT LIVER S-9, AROCLOR 1254, 30%, Method: DESICCATOR inactive; negative | Test System: AMES SALMONELLA TYPHIMURIUM, Strain/Indicator: TA98, Metabolic Activation: RAT LIVER S-9, AROCLOR 1254, 30%, Method: PREINCUBATION inactive; negative | [3] inactive; negative | Test System: AMES SALMONELLA TYPHIMURIUM, Strain/Indicator: TA100, Metabolic Activation: HAMSTER LIVER S-9, AROCLOR 1254, 30%, Method: DESICCATOR inactive; negative | Test System: AMES SALMONELLA TYPHIMURIUM, Strain/Indicator: TA100, Metabolic Activation: HAMSTER LIVER S-9, AROCLOR 1254, 30%, Method: PREINCUBATION inactive; negative | Test System: AMES SALMONELLA TYPHIMURIUM, Strain/Indicator: TA100, Metabolic Activation: HAMSTER, LIVER, S-9, AROCLOR 1254, Method: STANDARD PLATE inactive; negative | Test System: AMES SALMONELLA TYPHIMURIUM, Strain/Indicator: TA100, Metabolic Activation: NONE, Method: DESICCATOR inactive; negative | Test System: AMES SALMONELLA TYPHIMURIUM, Strain/Indicator: TA100, Metabolic Activation: NONE, Method: PREINCUBATION inactive; negative | [4] inactive; negative | Test System: AMES SALMONELLA TYPHIMURIUM, Strain/Indicator: TA100, Metabolic Activation: RAT LIVER S-9, AROCLOR 1254, 30%, Method: DESICCATOR inactive; negative | Test System: AMES SALMONELLA TYPHIMURIUM, Strain/Indicator: TA100, Metabolic Activation: RAT LIVER S-9, AROCLOR 1254, 30%, Method: PREINCUBATION inactive; negative | [5] inactive; negative | Test System: AMES SALMONELLA TYPHIMURIUM, Strain/Indicator: TA1535, Metabolic Activation: HAMSTER, LIVER, S-9, AROCLOR 1254, Method: STANDARD PLATE inactive; negative | Test System: AMES SALMONELLA TYPHIMURIUM, Strain/Indicator: TA1535, Metabolic Activation: NONE, Method: PREINCUBATION inactive; negative | [6] inactive; negative | Test System: AMES SALMONELLA TYPHIMURIUM, Strain/Indicator: TA1535, Metabolic Activation: RAT LIVER S-9, AROCLOR 1254, 30%, Method: PREINCUBATION inactive; negative | [7] inactive; negative | Test System: AMES SALMONELLA TYPHIMURIUM, Strain/Indicator: TA1537, Metabolic Activation: HAMSTER, LIVER, S-9, AROCLOR 1254, Method: STANDARD PLATE inactive; negative | [8] inactive; negative | [9] inactive; negative | Test System: AMES SALMONELLA TYPHIMURIUM, Strain/Indicator: TA1538, Metabolic Activation: HAMSTER, LIVER, S-9, AROCLOR 1254, Method: STANDARD PLATE inactive; negative | [10] inactive; negative | [11] inactive; negative | Test System: MOUSE LYMPHOMA, Strain/Indicator: L5178Y (TK+/TK-), Metabolic Activation: RAT, LIVER, S-9, AROCLOR 1254, Method: SUSPENSION/PLATE inactive; negative. reevaluation of results: negative
active: Test System: AMES SALMONELLA TYPHIMURIUM, Strain/Indicator: TA1535, Metabolic Activation: HAMSTER LIVER S-9, AROCLOR 1254, 30%, Method: PREINCUBATION active; positive | Test System: MOUSE LYMPHOMA, Strain/Indicator: L5178Y (TK+/TK-), Metabolic Activation: NONE, Method: SUSPENSION/PLATE active; positive. reevaluation of results: positive

BrCc1ccc(Br)cc1
inactive: Test System: AMES SALMONELLA TYPHIMURIUM, Strain/Indicator: TA97A, Metabolic Activation: NONE, Method: STANDARD PLATE inactive; negative | Test System: AMES SALMONELLA TYPHIMURIUM, Strain/Indicator: TA97A, Metabolic Activation: RAT LIVER S-9, PHENOBARBITAL, BETA-NAPHTHOFLAVONE, 3.5%, Method: STANDARD PLATE inactive; negative | [2] inactive; negative | Test System: AMES SALMONELLA TYPHIMURIUM, Strain/Indicator: TA98, Metabolic Activation: RAT LIVER S-9, PHENOBARBITAL, BETA-NAPHTHOFLAVONE, 3.5%, Method: STANDARD PLATE inactive; negative | [4] inactive; negative | Test System: AMES SALMONELLA TYPHIMURIUM, Strain/Indicator: TA100, Metabolic Activation: RAT LIVER S-9, PHENOBARBITAL, BETA-NAPHTHOFLAVONE, 3.5%, Method: STANDARD PLATE inactive; negative | [6] inactive; negative | Test System: AMES SALMONELLA TYPHIMURIUM, Strain/Indicator: TA1535, Metabolic Activation: RAT LIVER S-9, PHENOBARBITAL, BETA-NAPHTHOFLAVONE, 3.5%, Method: STANDARD PLATE inactive; negative | Test System: ESCHERICHIA COLI, Strain/Indicator: WP2 UVR A, Metabolic Activation: NONE, Method: STANDARD PLATE inactive; negative | Test System: ESCHERICHIA COLI, Strain/Indicator: WP2 UVR A, Metabolic Activation: RAT LIVER S-9, PHENOBARBITAL, BETA-NAPHTHOFLAVONE, 3.5%, Method: STANDARD PLATE inactive; negative

C/C=C(\C)CCl
active: Test System: AMES SALMONELLA TYPHIMURIUM, Strain/Indicator: TA100, Metabolic Activation: NONE, Method: LIQUID SUSPENSION active; positive | Test System: AMES SALMONELLA TYPHIMURIUM, Strain/Indicator: TA100, Metabolic Activation: RAT, LIVER, S-9, Method: LIQUID SUSPENSION active; positive

CS(=O)(=O)c1ccc(Cl)cc1
inactive: [2] inactive; negative | [3] inactive; negative | [4] inactive; negative | [5] inactive; negative | [6] inactive; negative | [7] inactive; negative | [8] inactive; negative | [9] inactive; negative | [10] inactive; negative | [11] inactive; negative

CC(C)c1ccccc1OC(=O)N(C)N=O
active: Test System: E. COLI WP2, Strain/Indicator: WP2, Metabolic Activation: NONE, Method: STANDARD PLATE active; positive

Nc1ccc(-c2cc(Cl)c(N)c(Cl)c2)cc1
inactive: [1] inactive; negative
active: Test System: AMES SALMONELLA TYPHIMURIUM, Strain/Indicator: TA98, Metabolic Activation: HAMSTER, LIVER, S-9, Method: PREINCUBATION active; positive
